In patent US11401271B2, “Fused heterocyclic compound, pyrazole-ring-containing fused heterocyclic compound, agricultural composition containing thereof, and method of using the composition” (SOUTH CHINA AGRICULTURAL UNIVERSITY, priority 2017, dated 2022):

Each compound was assayed on Spodoptera exigua (assay: whole plant or invertebrate). Conditions: 500 ppm; 2nd-instar larvae, leaf immersion feeding.
Type: in vivo
Procedure, shortened: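 Leaf immersion feeding: second-instar larvae (about 35 per vessel, triplicate) kept at 28° C on discs treated with 500 ppm test solution in 0.05% Tween-80. Mortality at 24 h, calculated relative to surviving larvae in the solvent control.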

| Compound | Spodoptera exigua Mortality (%) |
| --- | --- |
| COC(=O)C1(CC(=O)OCC(F)(F)F)Nc2c([S+]([O-])C(F)(F)F)c(C#N)nn2-c2cc(C(F)(F)F)cc(Cl)c21 (stereo not drawn) [c-19] | 100 |
| COC(=O)C1(CC(=O)OCC(F)F)Nc2c([S+]([O-])C(F)(F)F)c(C#N)nn2-c2cc(C(F)(F)F)cc(Cl)c21 (stereo not drawn) [c-20] | 100 |
| N#Cc1nn2c(c1[S+]([O-])C(F)(F)F)NC(Cc1ccccc1)(C(=O)C(F)(F)F)c1c(Cl)cc(C(F)(F)F)cc1-2 (stereo not drawn) [c-36] | 90 |
| CC(=O)C1(C(=O)C(F)(F)F)Nc2c([S+]([O-])C(F)(F)F)c(C#N)nn2-c2cc(C(F)(F)F)cc(Cl)c21 (stereo not drawn) [c-39] | 89 |
| N#Cc1nn2c(c1[S+]([O-])C(F)(F)F)NC(CCCl)(C(=O)C(F)(F)F)c1c(Cl)cc(C(F)(F)F)cc1-2 (stereo not drawn) [c-42] | 80 |
| CC(=O)C1(CC(=O)C(F)(F)F)Nc2c([S+]([O-])C(F)(F)F)c(C#N)nn2-c2cc(C(F)(F)F)cc(Cl)c21 (stereo not drawn) [c-47] | 89 |
| COC(=O)CC1(C(=O)OC)Nc2c([S+]([O-])C(F)(F)F)c(C#N)nn2-c2cc(OC(F)(F)F)cc(Cl)c21 (stereo not drawn) [c-224] | 95 |
| COC(=O)CC1(C(=O)OC)Nc2c(OC(F)(F)F)c(C#N)nn2-c2c(Cl)cc(C(F)(F)F)cc21 (stereo not drawn) [d-3] | 98 |
| COC(=O)CC1(C(=O)OC)Nc2c([S+]([O-])C(F)(F)F)c(C(C)=O)nn2-c2c(Cl)cc(C(F)(F)F)cc21 (stereo not drawn) [d-8] | 82 |
| COC(=O)CC1(C(=O)OC)Nc2c([S+]([O-])C(F)(F)F)c(CN)nn2-c2c(Cl)cc(C(F)(F)F)cc21 (stereo not drawn) [d-9] | 79 |
| COC(=O)CC1(C(=O)OC)Nc2c([S+](C)[O-])c(C#N)nn2-c2c(Cl)cc(C(F)(F)F)cc21 (stereo not drawn) [d-13] | 81 |
| CC[S+]([O-])c1c(C#N)nn2c1NC(CC(=O)OC)(C(=O)OC)c1cc(C(F)(F)F)cc(Cl)c1-2 (stereo not drawn) [d-14] | 89 |

Each compound was assayed on Aphis craccivora (assay: whole plant or invertebrate). Conditions: 500 ppm; wingless adults, immersion 5 seconds, counted after 24 hours.
Type: in vivo
Procedure, shortened: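 Mortality scored 24 h after treatment as the reduction in live aphids versus a 0.05% Tween-80 control; three replicates, 23° C. Treatment was a 5 s immersion of wingless adults on bean sprouts in 500 ppm test solution containing 0.05% Tween-80, followed by air-drying.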

| Compound | Aphis craccivora Mortality (%) |
| --- | --- |
| COC(=O)C1(CC(=O)OCC(F)(F)F)Nc2c([S+]([O-])C(F)(F)F)c(C#N)nn2-c2cc(C(F)(F)F)cc(Cl)c21 (stereo not drawn) [c-19] | 100 |
| COC(=O)C1(CC(=O)OCC(F)F)Nc2c([S+]([O-])C(F)(F)F)c(C#N)nn2-c2cc(C(F)(F)F)cc(Cl)c21 (stereo not drawn) [c-20] | 100 |
| N#Cc1nn2c(c1[S+]([O-])C(F)(F)F)NC(Cc1ccccc1)(C(=O)C(F)(F)F)c1c(Cl)cc(C(F)(F)F)cc1-2 (stereo not drawn) [c-36] | 95 |
| CC(=O)C1(C(=O)C(F)(F)F)Nc2c([S+]([O-])C(F)(F)F)c(C#N)nn2-c2cc(C(F)(F)F)cc(Cl)c21 (stereo not drawn) [c-39] | 100 |
| N#Cc1nn2c(c1[S+]([O-])C(F)(F)F)NC(CCCl)(C(=O)C(F)(F)F)c1c(Cl)cc(C(F)(F)F)cc1-2 (stereo not drawn) [c-42] | 100 |
| CC(=O)C1(CC(=O)C(F)(F)F)Nc2c([S+]([O-])C(F)(F)F)c(C#N)nn2-c2cc(C(F)(F)F)cc(Cl)c21 (stereo not drawn) [c-47] | 100 |
| COC(=O)CC1(C(=O)OC)Nc2c([S+]([O-])C(F)(F)F)c(C#N)nn2-c2cc(OC(F)(F)F)cc(Cl)c21 (stereo not drawn) [c-224] | 100 |
| COC(=O)CC1(C(=O)OC)Nc2c(OC(F)(F)F)c(C#N)nn2-c2c(Cl)cc(C(F)(F)F)cc21 (stereo not drawn) [d-3] | 100 |
| COC(=O)CC1(C(=O)OC)Nc2c([S+]([O-])C(F)(F)F)c(C(C)=O)nn2-c2c(Cl)cc(C(F)(F)F)cc21 (stereo not drawn) [d-8] | 90 |
| COC(=O)CC1(C(=O)OC)Nc2c([S+]([O-])C(F)(F)F)c(CN)nn2-c2c(Cl)cc(C(F)(F)F)cc21 (stereo not drawn) [d-9] | 96 |
| COC(=O)CC1(C(=O)OC)Nc2c([S+](C)[O-])c(C#N)nn2-c2c(Cl)cc(C(F)(F)F)cc21 (stereo not drawn) [d-13] | 99 |
| CC[S+]([O-])c1c(C#N)nn2c1NC(CC(=O)OC)(C(=O)OC)c1cc(C(F)(F)F)cc(Cl)c1-2 (stereo not drawn) [d-14] | 100 |

What follows are compounds tested on Plutella xylostella (assay: whole plant or invertebrate). Conditions: 500 ppm; 2nd-instar larvae, leaf immersion feeding.
Type: in vivo
Procedure, shortened: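 Leaf immersion feeding test: 2nd-instar larvae (about 35 per vessel, 3 replicates) kept at 28° C. on 1.0 cm cabbage discs soaked 5 s in a 500 ppm solution with 0.05% Tween-80. Mortality after 24 h of exposure, calculated relative to live larvae in the Tween-80 control.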

| Compound | Plutella xylostella Mortality (%) |
| --- | --- |
| COC(=O)C1(CC(=O)OCC(F)(F)F)Nc2c([S+]([O-])C(F)(F)F)c(C#N)nn2-c2cc(C(F)(F)F)cc(Cl)c21 (stereo not drawn) [c-19] | 100 |
| COC(=O)C1(CC(=O)OCC(F)F)Nc2c([S+]([O-])C(F)(F)F)c(C#N)nn2-c2cc(C(F)(F)F)cc(Cl)c21 (stereo not drawn) [c-20] | 100 |
| N#Cc1nn2c(c1[S+]([O-])C(F)(F)F)NC(Cc1ccccc1)(C(=O)C(F)(F)F)c1c(Cl)cc(C(F)(F)F)cc1-2 (stereo not drawn) [c-36] | 92 |
| CC(=O)C1(C(=O)C(F)(F)F)Nc2c([S+]([O-])C(F)(F)F)c(C#N)nn2-c2cc(C(F)(F)F)cc(Cl)c21 (stereo not drawn) [c-39] | 95 |
| N#Cc1nn2c(c1[S+]([O-])C(F)(F)F)NC(CCCl)(C(=O)C(F)(F)F)c1c(Cl)cc(C(F)(F)F)cc1-2 (stereo not drawn) [c-42] | 86 |
| CC(=O)C1(CC(=O)C(F)(F)F)Nc2c([S+]([O-])C(F)(F)F)c(C#N)nn2-c2cc(C(F)(F)F)cc(Cl)c21 (stereo not drawn) [c-47] | 90 |
| COC(=O)CC1(C(=O)OC)Nc2c([S+]([O-])C(F)(F)F)c(C#N)nn2-c2cc(OC(F)(F)F)cc(Cl)c21 (stereo not drawn) [c-224] | 99 |
| COC(=O)CC1(C(=O)OC)Nc2c(OC(F)(F)F)c(C#N)nn2-c2c(Cl)cc(C(F)(F)F)cc21 (stereo not drawn) [d-3] | 100 |
| COC(=O)CC1(C(=O)OC)Nc2c([S+]([O-])C(F)(F)F)c(C(C)=O)nn2-c2c(Cl)cc(C(F)(F)F)cc21 (stereo not drawn) [d-8] | 85 |
| COC(=O)CC1(C(=O)OC)Nc2c([S+]([O-])C(F)(F)F)c(CN)nn2-c2c(Cl)cc(C(F)(F)F)cc21 (stereo not drawn) [d-9] | 82 |
| COC(=O)CC1(C(=O)OC)Nc2c([S+](C)[O-])c(C#N)nn2-c2c(Cl)cc(C(F)(F)F)cc21 (stereo not drawn) [d-13] | 82 |
| CC[S+]([O-])c1c(C#N)nn2c1NC(CC(=O)OC)(C(=O)OC)c1cc(C(F)(F)F)cc(Cl)c1-2 (stereo not drawn) [d-14] | 90 |

Each compound was assayed on Solenopsis invicta (assay: whole plant or invertebrate). Conditions: 100 ppm; 24 h; water test tube poison-feeding.
Type: in vivo
Procedure, shortened: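 Mortality (%) of Solenopsis invicta, computed against live counts in control tubes, was recorded 24 h and 72 h after treatment at 25 °C. Compound was offered by oral feeding in test tubes at 100 ppm, diluted from a 10 g/L DMSO stock into water with 5% honey and 0.05% Tween-80.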

| Compound | Solenopsis invicta Mortality (%) 24 h [%] |
| --- | --- |
| COC(=O)C1(CC(=O)OCC(F)(F)F)Nc2c([S+]([O-])C(F)(F)F)c(C#N)nn2-c2cc(C(F)(F)F)cc(Cl)c21 (stereo not drawn) [c-19] | 20 |
| COC(=O)C1(CC(=O)OCC(F)F)Nc2c([S+]([O-])C(F)(F)F)c(C#N)nn2-c2cc(C(F)(F)F)cc(Cl)c21 (stereo not drawn) [c-20] | 14 |
| N#Cc1nn2c(c1[S+]([O-])C(F)(F)F)NC(Cc1ccccc1)(C(=O)C(F)(F)F)c1c(Cl)cc(C(F)(F)F)cc1-2 (stereo not drawn) [c-36] | 21 |
| CC(=O)C1(C(=O)C(F)(F)F)Nc2c([S+]([O-])C(F)(F)F)c(C#N)nn2-c2cc(C(F)(F)F)cc(Cl)c21 (stereo not drawn) [c-39] | 24 |
| N#Cc1nn2c(c1[S+]([O-])C(F)(F)F)NC(CCCl)(C(=O)C(F)(F)F)c1c(Cl)cc(C(F)(F)F)cc1-2 (stereo not drawn) [c-42] | 20 |
| CC(=O)C1(CC(=O)C(F)(F)F)Nc2c([S+]([O-])C(F)(F)F)c(C#N)nn2-c2cc(C(F)(F)F)cc(Cl)c21 (stereo not drawn) [c-47] | 35 |
| COC(=O)CC1(C(=O)OC)Nc2c([S+]([O-])C(F)(F)F)c(C#N)nn2-c2cc(OC(F)(F)F)cc(Cl)c21 (stereo not drawn) [c-224] | 25 |
| COC(=O)CC1(C(=O)OC)Nc2c(OC(F)(F)F)c(C#N)nn2-c2c(Cl)cc(C(F)(F)F)cc21 (stereo not drawn) [d-3] | 21 |
| COC(=O)CC1(C(=O)OC)Nc2c([S+]([O-])C(F)(F)F)c(C(C)=O)nn2-c2c(Cl)cc(C(F)(F)F)cc21 (stereo not drawn) [d-8] | 15 |
| COC(=O)CC1(C(=O)OC)Nc2c([S+]([O-])C(F)(F)F)c(CN)nn2-c2c(Cl)cc(C(F)(F)F)cc21 (stereo not drawn) [d-9] | 21 |
| COC(=O)CC1(C(=O)OC)Nc2c([S+](C)[O-])c(C#N)nn2-c2c(Cl)cc(C(F)(F)F)cc21 (stereo not drawn) [d-13] | 26 |
| CC[S+]([O-])c1c(C#N)nn2c1NC(CC(=O)OC)(C(=O)OC)c1cc(C(F)(F)F)cc(Cl)c1-2 (stereo not drawn) [d-14] | 24 |

Same assay, conditions: 100 ppm; 72 h; water test tube poison-feeding

| Compound | Solenopsis invicta Mortality (%) 72 h [%] |
| --- | --- |
| COC(=O)C1(CC(=O)OCC(F)(F)F)Nc2c([S+]([O-])C(F)(F)F)c(C#N)nn2-c2cc(C(F)(F)F)cc(Cl)c21 (stereo not drawn) [c-19] | 100 |
| COC(=O)C1(CC(=O)OCC(F)F)Nc2c([S+]([O-])C(F)(F)F)c(C#N)nn2-c2cc(C(F)(F)F)cc(Cl)c21 (stereo not drawn) [c-20] | 100 |
| N#Cc1nn2c(c1[S+]([O-])C(F)(F)F)NC(Cc1ccccc1)(C(=O)C(F)(F)F)c1c(Cl)cc(C(F)(F)F)cc1-2 (stereo not drawn) [c-36] | 100 |
| CC(=O)C1(C(=O)C(F)(F)F)Nc2c([S+]([O-])C(F)(F)F)c(C#N)nn2-c2cc(C(F)(F)F)cc(Cl)c21 (stereo not drawn) [c-39] | 90 |
| N#Cc1nn2c(c1[S+]([O-])C(F)(F)F)NC(CCCl)(C(=O)C(F)(F)F)c1c(Cl)cc(C(F)(F)F)cc1-2 (stereo not drawn) [c-42] | 97 |
| CC(=O)C1(CC(=O)C(F)(F)F)Nc2c([S+]([O-])C(F)(F)F)c(C#N)nn2-c2cc(C(F)(F)F)cc(Cl)c21 (stereo not drawn) [c-47] | 99 |
| COC(=O)CC1(C(=O)OC)Nc2c([S+]([O-])C(F)(F)F)c(C#N)nn2-c2cc(OC(F)(F)F)cc(Cl)c21 (stereo not drawn) [c-224] | 100 |
| COC(=O)CC1(C(=O)OC)Nc2c(OC(F)(F)F)c(C#N)nn2-c2c(Cl)cc(C(F)(F)F)cc21 (stereo not drawn) [d-3] | 87 |
| COC(=O)CC1(C(=O)OC)Nc2c([S+]([O-])C(F)(F)F)c(C(C)=O)nn2-c2c(Cl)cc(C(F)(F)F)cc21 (stereo not drawn) [d-8] | 65 |
| COC(=O)CC1(C(=O)OC)Nc2c([S+]([O-])C(F)(F)F)c(CN)nn2-c2c(Cl)cc(C(F)(F)F)cc21 (stereo not drawn) [d-9] | 77 |
| COC(=O)CC1(C(=O)OC)Nc2c([S+](C)[O-])c(C#N)nn2-c2c(Cl)cc(C(F)(F)F)cc21 (stereo not drawn) [d-13] | 89 |
| CC[S+]([O-])c1c(C#N)nn2c1NC(CC(=O)OC)(C(=O)OC)c1cc(C(F)(F)F)cc(Cl)c1-2 (stereo not drawn) [d-14] | 100 |
